Results taken from ChEMBL document CHEMBL1136459, “New antibacterial tetrahydro-4(2H)-thiopyran and thiomorpholine S-oxide and S,S-dioxide phenyloxazolidinones” (Bioorg Med Chem Lett, 2003).
≈ marks a conversion by molar mass, not a printed value.

Legend:
[1] = system: Staphylococcus epidermidis; test: In vitro antibacterial activity against Staphylococcus epidermidis strains UC12084, 30031, and CDC-CNS90 (SE); format: functional
Staphylococcus aureus [2] = test: In vitro antibacterial activity against linezolid-resistant Staphylococcus aureus ATCC 29213 (LRSA).; format: functional
Enterococcus faecium = test: In vitro antibacterial activity against vancomycin-resistant Enterococcus faecium UC12712 (VRE).
Staphylococcus aureus [3] = test: In vitro antibacterial activity against Staphylococcus aureus strains UC12673, UC9213, ATCC 29213, and UC9271 (SA); range is 8-32; format: functional
Haemophilus influenzae [4] = test: In vitro antibacterial activity against Haemophilia influenzae strains ATCC 30063 and ATCC 31517; format: functional
Moraxella catarrhalis [5] = test: In vitro antibacterial activity against Moraxella catarrhalis strains 30607 and 30603 (MC); range is 32-64; format: functional
Staphylococcus aureus [6] = test: In vitro antibacterial activity against Staphylococcus aureus strains UC12673, UC9213, ATCC 29213, and UC9271 (SA); range is 16-32; format: functional
Moraxella catarrhalis [7] = test: In vitro antibacterial activity against Moraxella catarrhalis strains 30607 and 30603 (MC).; format: functional
Streptococcus pneumoniae [8] = test: In vitro antibacterial activity against Streptococcus pneumoniae strains ATCC 6305 and 31573 (SPN); range is 2-4
Streptococcus pneumoniae [9] = test: In vitro antibacterial activity against Streptococcus pneumoniae strains ATCC6305 and 31573 (SPN).
Haemophilus influenzae [10] = test: In vitro antibacterial activity against Haemophilia influenzae strains 30063 and ATCC 31517 (HI); range is 4-8; format: functional
Moraxella catarrhalis [11] = test: In vitro antibacterial activity against Moraxella catarrhalis strains 30607 and 30603 (MC); range is 2-4; format: functional
Staphylococcus aureus [12] = test: In vitro antibacterial activity against Staphylococcus aureus strains UC12673, UC9213, ATCC 29213, and UC9271 (SA); range is 2-4; format: functional
[13] = system: Staphylococcus epidermidis; test: In vitro antibacterial activity against Staphylococcus epidermidis strains UC12084, 30031, and CDC-CNS90 (SE); range is 2-4; format: functional
Staphylococcus aureus [14] = test: In vitro antibacterial activity against Staphylococcus aureus strains UC12673, UC9213, ATCC 29213, and UC9271 (SA); range is 4-16; format: functional
Moraxella catarrhalis [15] = test: In vitro antibacterial activity against Moraxella catarrhalis strains 30607 and 30603 (MC); range is 16-32; format: functional
Haemophilus influenzae [16] = test: In vitro antibacterial activity against Haemophilia influenzae strains 30063 and ATCC 31517 (HI); range is 16-64; format: functional
Rattus norvegicus [17] = test: In vivo Cmax was determined after intravenous administration of compound (9.13+/-0.85 mg/kg) in male Sprague-Dawley rat; format: ADME, organism-based; set-up: route intravenous
Rattus norvegicus [18] = test: In vivo t1/2 was determined after peroral administration of compound (19.01+/-0.31 mg/kg) in male Sprague-Dawley rat; format: ADME, organism-based; conditions: po
Rattus norvegicus [19] = test: In vivo Cmax was determined after peroral administration of compound (76.4+/-2.6 mg/kg) in male Sprague-Dawley rat; format: ADME, organism-based; set-up: route oral; conditions: po
Rattus norvegicus [20] = test: In vivo Tmax was determined after peroral administration of compound (19.01+/-0.31 mg/kg) in male Sprague-Dawley rat; format: ADME, organism-based; conditions: po
[21] = In vivo t1/2 was determined after peroral administration of compound (158.5+/-2 mg/kg) in male Sprague-Dawley rat; format: ADME, organism-based; conditions: po
Rattus norvegicus [22] = test: In vivo Area under curve (AUC) was determined after peroral administration of compound (76.4+/-2.6 mg/kg) in male Sprague-Dawley rat; format: ADME, organism-based; conditions: po
[23] = system: Staphylococcus epidermidis; test: In vitro antibacterial activity against Staphylococcus epidermidis strains UC12084, 30031, and CDC-CNS90 (SE); range is 1-24; format: functional
[24] = In vivo Cmax was determined after peroral administration of compound (158.5+/-2 mg/kg) in male Sprague-Dawley rat; format: ADME, organism-based; set-up: route oral; conditions: po
[25] = In vivo Oral bioavailability (F)was determined after peroral administration of compound (19.01+/-0.31 mg/kg) in male Sprague-Dawley rat; format: ADME, organism-based
Rattus norvegicus [26] = test: In vivo Clearance (Cl) was determined after intravenous administration of compound (9.13+/-0.85 mg/kg) in male Sprague-Dawley rat; format: ADME, organism-based
[27] = In vivo Oral bioavailability (F)was determined after peroral administration of compound (158.5+/-2 mg/kg) in male Sprague-Dawley rat; format: ADME, organism-based
[28] = In vivo Volume distribution (Vss) was determined after intravenous administration of compound (9.13+/-0.85 mg/kg) in male Sprague-Dawley rat; format: ADME, organism-based; conditions: read-out: Vss
[29] = In vivo Tmax was determined after peroral administration of compound (158.5+/-2 mg/kg) in male Sprague-Dawley rat; format: ADME, organism-based; conditions: po
Rattus norvegicus [30] = test: In vivo Tmax was determined after peroral administration of compound (76.4+/-2.6 mg/kg) in male Sprague-Dawley rat; format: ADME, organism-based; conditions: po
Rattus norvegicus [31] = test: In vivo t1/2 was determined after intravenous administration of compound (9.13+/-0.85 mg/kg) in male Sprague-Dawley rat; format: ADME, organism-based
Rattus norvegicus [32] = test: In vivo Area under curve (AUC) was determined after peroral administration of compound (19.01+/-0.31 mg/kg) in male Sprague-Dawley rat; format: ADME, organism-based; conditions: po
Rattus norvegicus [33] = test: In vivo t1/2 was determined after peroral administration of compound (76.4+/-2.6 mg/kg) in male Sprague-Dawley rat; format: ADME, organism-based; conditions: po
Moraxella catarrhalis [34] = test: In vitro antibacterial activity against Moraxella catarrhalis strains 30607 and 30603 (MC); range is 4-8; format: functional
Rattus norvegicus [35] = test: In vivo Area under curve (AUC) was determined after intravenous administration of compound (9.13+/-0.85 mg/kg) in male Sprague-Dawley rat; format: ADME, organism-based
Rattus norvegicus [36] = test: In vivo Cmax was determined after peroral administration of compound (19.01+/-0.31 mg/kg) in male Sprague-Dawley rat; format: ADME, organism-based; set-up: route oral; conditions: po
Rattus norvegicus [37] = test: In vivo Area under curve (AUC) was determined after oral administration of compound (158.5+/-2 mg/kg) in male Sprague-Dawley rat
Rattus norvegicus [38] = test: In vivo Volume distribution (Vss) was determined after peroral administration of compound (158.5+/-2 mg/kg) in male Sprague-Dawley rat; format: ADME, organism-based; conditions: po
Rattus norvegicus [39] = test: In vivo Tmax was determined after intravenous administration of compound (9.13+/-0.85 mg/kg) in male Sprague-Dawley rat; format: ADME, organism-based
Rattus norvegicus [40] = test: In vivo Volume distribution (Vss) was determined after peroral administration of compound (76.4+/-2.6 mg/kg) in male Sprague-Dawley rat; format: ADME, organism-based; conditions: po
Mus musculus = test: In vivo Efficacy of compound after peroral administration in mouse; format: functional; conditions: po
[41] = In vivo Oral bioavailability (F)was determined after peroral administration of compound (76.4+/-2.6 mg/kg) in male Sprague-Dawley rat; format: ADME, organism-based
Staphylococcus aureus [42] = test: In vitro antibacterial activity against Linezolid resistance Staphylococcus aureus ATCC 29213 (LRSA)
Haemophilus influenzae [43] = test: In vitro antibacterial activity against Haemophilia influenzae strains 30063 and ATCC 31517 (HI); range is 16-32; format: functional

CC(=O)Oc1ccc(C(=O)NC[C@H]2CN(c3ccc(C4CC[S+]([O-])CC4)c(F)c3)C(=O)O2)cc1 (some centres not stated)
MIC [1]: 4 µg/mL (≈ 8.19 µM)
MIC (Staphylococcus aureus [2]): 64 µg/mL (≈ 131 µM)
MIC (Enterococcus faecium): 0.06 µg/mL (≈ 0.123 µM)
MIC (Staphylococcus aureus [3]): 8 µg/mL (≈ 16.4 µM)
MIC (Haemophilus influenzae [4]): 64 µg/mL (≈ 131 µM)
MIC (Moraxella catarrhalis [5]): 32 µg/mL (≈ 65.5 µM)

O=C(CO)NC[C@H]1CN(c2ccc(C3CC[S+]([O-])CC3)c(F)c2)C(=O)O1 (some centres not stated)
MIC (Staphylococcus aureus [6]): 16 µg/mL (≈ 41.6 µM)
MIC [1]: 4 µg/mL (≈ 10.4 µM)
MIC (Moraxella catarrhalis [7]): 8 µg/mL (≈ 20.8 µM)
MIC (Streptococcus pneumoniae [8]): 2 µg/mL (≈ 5.2 µM)
MIC (Staphylococcus aureus [2]): 64 µg/mL (≈ 166 µM)
MIC (Enterococcus faecium): 8 µg/mL (≈ 20.8 µM)
MIC (Haemophilus influenzae [4]): 8 µg/mL (≈ 20.8 µM)

CC(=O)NC[C@H]1CN(c2ccc(C3CCS(=O)(=O)CC3)c(F)c2)C(=O)O1
MIC (Streptococcus pneumoniae [9]): 0.5 µg/mL (≈ 1.3 µM)
MIC (Haemophilus influenzae [10]): 4 µg/mL (≈ 10.4 µM)
MIC [1]: 0.5 µg/mL (≈ 1.3 µM)
MIC (Moraxella catarrhalis [11]): 2 µg/mL (≈ 5.2 µM)
MIC (Staphylococcus aureus [2]): 32 µg/mL (≈ 83.2 µM)
MIC (Enterococcus faecium): 2 µg/mL (≈ 5.2 µM)
MIC (Staphylococcus aureus [12]): 2 µg/mL (≈ 5.2 µM)

O=C(/C=C/c1cccnc1)NC[C@H]1CN(c2ccc(C3CCS(=O)(=O)CC3)c(F)c2)C(=O)O1
MIC [13]: 2 µg/mL (≈ 4.22 µM)
MIC (Staphylococcus aureus [14]): 4 µg/mL (≈ 8.45 µM)
MIC (Staphylococcus aureus [2]): 32 µg/mL (≈ 67.6 µM)
MIC (Moraxella catarrhalis [15]): 16 µg/mL (≈ 33.8 µM)
MIC (Enterococcus faecium): 8 µg/mL (≈ 16.9 µM)
MIC (Haemophilus influenzae [16]): 16 µg/mL (≈ 33.8 µM)

O=C(NC[C@H]1CN(c2ccc(C3CC[S+]([O-])CC3)c(F)c2)C(=O)O1)C(F)F (some centres not stated)
Cmax (Rattus norvegicus [17]): 15600 ng/mL
T1/2 (Rattus norvegicus [18]): 3.6 h
Cmax (Rattus norvegicus [19]): 8600 ng/mL
T max (Rattus norvegicus [20]): 0.38 h
half-life [21]: 7.93 h
MIC (Haemophilus influenzae [10]): 4 µg/mL (≈ 9.89 µM)
AUC (Rattus norvegicus [22]): 32400 ng·h/mL
MIC [23]: 1 µg/mL (≈ 2.47 µM)
Cmax [24]: 9070 ng/mL
bioavailability [25]: 77.1%
Cl (Rattus norvegicus [26]): 37.25 mL/min/kg
bioavailability [27]: 85.7%
Vd [28]: 1.78 L/kg
Tmax [29]: 0.38 h
T max (Rattus norvegicus [30]): 0.5 h
T1/2 (Rattus norvegicus [31]): 2.9 h
AUC (Rattus norvegicus [32]): 6570 ng·h/mL
T1/2 (Rattus norvegicus [33]): 4.25 h
MIC (Moraxella catarrhalis [34]): 4 µg/mL (≈ 9.89 µM)
AUC (Rattus norvegicus [35]): 4090 ng·h/mL
Cmax (Rattus norvegicus [36]): 3470 ng/mL
AUC (Rattus norvegicus [37]): 60800 ng·h/mL
Vss (Rattus norvegicus [38]): 29.84 L/kg
T max (Rattus norvegicus [39]): 1.98 min
MIC (Staphylococcus aureus [2]): 16 µg/mL (≈ 39.6 µM)
MIC (Enterococcus faecium): 2 µg/mL (≈ 4.95 µM)
Vss (Rattus norvegicus [40]): 29.84 L/kg
ED50 (Mus musculus): 6.52 mg/kg
bioavailability [41]: 95.1%
MIC (Staphylococcus aureus [12]): 2 µg/mL (≈ 4.95 µM)

O=C(NC[C@H]1CN(c2ccc(N3CCS(=O)(=O)CC3)c(F)c2)C(=O)O1)C1CC1
MIC (Streptococcus pneumoniae [9]): 2 µg/mL (≈ 4.86 µM)
MIC (Staphylococcus aureus [14]): 4 µg/mL (≈ 9.72 µM)
MIC (Moraxella catarrhalis [7]): 4 µg/mL (≈ 9.72 µM)
MIC (Staphylococcus aureus [42]): 2 µg/mL (≈ 4.86 µM)
MIC (Enterococcus faecium): 4 µg/mL (≈ 9.72 µM)
MIC (Haemophilus influenzae [43]): 16 µg/mL (≈ 38.9 µM)
